{P} = phosphate
Tests used:
[1] = system: p95 phosphorylated at serine 343; assay: p95 serine 343 phosphorylation after tankyrase siRNA, western blotting and densitometry; assay type: cell-based, human; conditions: 24 hours
Description: Paired cultures of human fibroblasts were treated once with tankyrase siRNA, with a non-specific siRNA (control) or were mock transfected as a second control. […] After an additional 24 hours, cells were collected and processed for western blotting using an antibody specific for p95 phosphorylated at serine 343, indicating p95 modification by activated ATM kinase. The film was then subjected to densitometry and the diluent control for each group of cells was set at 1.0 in arbitrary units (FIG. 19). As expected, in cells with normal tankyrase levels the T-oligo treated cells had twice the amount of phosphorylated p95, while the control oligo-treated or diluent-treated cells had only a 30-40% increase.

[2] = system: HT-1080 human fibrosarcoma cells; assay: Clonogenic assay; assay type: cell-based; conditions: HT-1080, 40 μM for one week, then replated 2 weeks without treatment
Description: Cells were treated with diluent, 40 μM T-oligo or complementary oligo for one week, and then assayed. FIG. 15a: Appearance of stained dishes. FIG. 15b: Quantification of clonogenic capacity. Colonies of triplicate cultures were counted and plotted as percentage of diluent treated control.
Human fibrosarcoma cells were treated with diluent alone, 40 μM T-oligo or 40 μM complementary oligo for one week and were then trypsinized and counted. 300 cells were seeded into 60 mm culture dishes in triplicate and then incubated in complete medium for 2 weeks with medium changed twice per week. Subsequently, the cells were fixed for 5 min in 100% methanol. The methanol was then removed and the culture dishes were rinsed briefly with water. The colonies were stained for 10 min in 4% (w/v) methylene blue solution in PBS, washed once again with water, and then counted.
To determine the long-term effect of T-oligo treatment on cell growth, HT-1080 human fibrosarcoma cells were treated with either diluent alone, 40 μM T-oligo or 40 μM complementary control oligo for one week and then an equal number of cells were replated and medium was changed twice per week for 2 weeks with no further treatment, and then stained with methylene blue (FIG. 15a).

S91 mouse melanoma cells = assay: Melanin content of S91 melanoma cells; assay type: cell-based; conditions: 40 μM, 6 days
Description: Cultures of S91 mouse melanoma cells (100,000 cells/38 cm^2) were treated with 100 μM pTpT or phosphorothioate pTpT (pTspT) (FIG. 4) or 40 μM 11mer-1 or the phosphorothioate 11mer-1 (11mer-1-S) (FIG. 5) for 6 days and were then collected, counted and assayed for melanin content.
Duplicate cultures of S91 cells (100,000 cells/39 cm^2) were either sham-irradiated or irradiated with 5 mJ/cm^2 solar-simulated light from a 1 kW xenon arc solar-simulator (XMN 1000-21, Optical Radiation, Azuza, Calif.) metered at 285±5 nm using a research radiometer (model IL1700A, International Light, Newburyport, Mass.). Two sham-irradiated plates were then supplemented with 100 μM pTspT and two irradiated cultures were similarly treated with pTspT. After one week, cells were collected, counted and analyzed for melanin content by dissolving the cell pellets in 1 N NaOH and measuring the optical density at 475 nm. […] However, this response was blocked by the addition of pTspT (FIG. 6). In addition, the constitutive pigmentation of these cells was reduced by the pTspT in the sham-irradiated cultures, similar to the data presented in FIGS. 4 and 5.

[3] = system: pRb phosphorylation on serine 780, serine 795 and serine 807/811; assay: Western blot of pRb phosphorylation in HT-1080 cells; assay type: cell-based, human
Description: FIG. 13a: Exposure to T-oligo increases SA-β-Gal activity. HT-1080 cells were treated for 4 days with diluent alone or 40 μM T-oligo or the complementary control oligo, then stained and assayed for SA-β-Gal activity. FIG. 13b: Quantitative analysis of SA-β-Gal positive cells. Cells expressing SA-β-Gal activity were counted and presented as percentage of total cells in the cultures. Averages and standard deviations were calculated from 3 representative fields from each of 3 independent experiments. FIG. 13c: Effect of T-oligo on cell proliferation. Cells were treated for 4 days as in FIG. 12 and assayed for DNA synthesis by BrdU incorporation. FIG. 13d: Quantitative analysis of BrdU incorporation. Dark black nuclei indicate BrdU incorporated into nuclear DNA. BrdU positive cells were calculated and presented as percentage of total cells in the cultures. Averages and standard deviations were calculated from 3 representative fields from each of 3 independent experiments. FIG. 13e: Effect of T-oligo on pRb phosphorylation. Cells were treated as in FIG. 13a and were then collected for protein analysis by western blot using 30 μg total protein and probed for pRb-ser780*, ser795* and ser807/811* (pRb phosphorylated at serine 780, serine 795 and serine 807/811 respectively). […]

In the case of “pGTTAGGGTTAG (DNA, 5' {P}, backbone not given here; listed as Homo sapiens) [Oligonucleotide 11mer-1]”, the “amount of phosphorylated p95 relative to diluent control” value ([1]; human fibroblasts with normal tankyrase levels) is reported as “twice”, the “level of p95 phosphorylation (densitometry, diluent control set at 1.0)” value ([1]; tankyrase knockdown group (tankyrase siRNA)) is reported as 1.1 arbitrary units and the clonogenic capacity [2] is reported as 5.7±1.9 % of diluent treated control. The “melanogenesis (melanin content)” value (S91 mouse melanoma cells) was “stimulated melanogenesis”, the “state of pRb proteins after removal of oligo” value ([3]; HT-1080, 4 days 40 μM, then fresh medium without oligonucleotide) was “sustained in an active, inhibitory state” and the “pRb phosphorylation on serine 780, serine 795 and serine 807/811” value ([3]; HT-1080 cells, 40 μM, 4 days) was “striking and selective reduction”.
